17 compounds from ChEMBL document CHEMBL1687887, “Evolution of potent and stable placental-growth-factor-1-targeting CovX-bodies from phage display peptide discovery” (J Med Chem, 2011) can be followed below.

Numbered stars: 1 amine (or outer) side, 2 acyl side, 3 side chain; on linkers, the order of the positions; unused ones are H or OH. Bridge positions count the residues as written; N and C are the ends. Square brackets hold non-standard residues; d marks the D form. Peptide text beside a SMILES is read from it. * marks the point of attachment. X2 = NCCCC[C@H](N[*:1])C(=O)NC(=O)COCC(=O)[*:2]; X1 = O=C(COCC(=O)*)Nc1ccc(CCC(=O)N2CCC2=O)cc1; X3 = O=C(CCc1ccc(N*)cc1)N1CCC1=O; Aad = N[C@@H](CCCC(=O)O)C(=O)O

Usually Kd stands for the constant that tells how readily two partners part at equilibrium. Broadly, the IC50 is the concentration at which inhibition is half-maximal.

The first assay has as its target T1, Placenta growth factor (Homo sapiens, UniProt P49763).
T1 sequence (P49763 whole entry): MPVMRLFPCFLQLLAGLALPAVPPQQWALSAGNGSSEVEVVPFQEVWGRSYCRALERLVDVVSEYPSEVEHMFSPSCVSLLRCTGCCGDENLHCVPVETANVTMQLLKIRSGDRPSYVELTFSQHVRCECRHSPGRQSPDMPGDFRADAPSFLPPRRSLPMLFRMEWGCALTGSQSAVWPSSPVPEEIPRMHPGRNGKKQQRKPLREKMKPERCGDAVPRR
As to the kind of experiment: Binding affinity to human PlGF-1.
Conditions: not given; call rule not given here
Consider `N=C(N)NCCC[C@@H]1NC(=O)[C@H](CCCCNC(=O)COCC(=O)Nc2ccc(CCC(=O)N3CCC3=O)cc2)NC(=O)[C@@H](Cc2ccccc2)NC(=O)[C@H](CC(=O)O)NC(=O)CNC1=O`, for which the Kd entry is reported as “Not Active”.

The assay is the same for the next values; noted with them: read-out: Kd.
`CC(=O)NCCCC[C@@H]1NC(=O)[C@@H](NC(=O)[C@@H](NC(=O)[C@H](CC(=O)O)NC(=O)[C@H](Cc2ccccc2)NC(C)=O)C(C)C)CSSC[C@@H](C(=O)N[C@@H](CCCCNC(C)=O)C(=O)N[C@H](C(=O)N[C@@H](CCCCN)C(=O)NC(=O)COCC(=O)Nc2ccc(CCC(=O)N3CCC3=O)cc2)C(C)C)NC(=O)[C@H](Cc2cnc[nH]2)NC(=O)[C@@H]2CCCN2C(=O)[C@H](CC(C)C)NC(=O)[C@H]([C@@H](C)O)NC(=O)[C@H](C(C)C)NC(=O)[C@H](Cc2c[nH]c3ccccc23)NC1=O` (Ac-FDVCK(Ac)WVTLPHCK(Ac)V[X2]-X3; disulfide 4-12): the Kd worked out at 0.008 µM.

For the compound `CC(=O)NCCCC[C@H](NC(=O)[C@@H]1CSSC[C@H](NC(=O)[C@@H](NC(=O)[C@H](CC(=O)O)NC(=O)[C@H](Cc2ccccc2)NC(C)=O)C(C)C)C(=O)N[C@@H](CC(N)=O)C(=O)N[C@@H](Cc2c[nH]c3ccccc23)C(=O)N[C@@H](C(C)C)C(=O)N[C@@H]([C@@H](C)O)C(=O)N[C@@H](CC(C)C)C(=O)N2CCC[C@H]2C(=O)N[C@@H](Cc2cnc[nH]2)C(=O)N1)C(=O)N[C@H](C(=O)N[C@@H](CCCCN)C(=O)NC(=O)COCC(=O)Nc1ccc(CCC(=O)N2CCC2=O)cc1)C(C)C` (Ac-FDVCNWVTLPHCK(Ac)V[X2]-X3; disulfide 4-12), the dissociation constant (Kd) is 0.005 µM.

In the case of `CSCC[C@H](NC(=O)[C@@H](NC(=O)[C@H](CCCCNC(C)=O)NC(=O)[C@@H]1CSSC[C@H](NC(=O)[C@@H](NC(=O)[C@H](CCCCNC(=O)COCC(=O)Nc2ccc(CCC(=O)N3CCC3=O)cc2)NC(=O)[C@H](Cc2ccccc2)NC(C)=O)C(C)C)C(=O)N[C@@H](CC(N)=O)C(=O)N[C@@H](Cc2c[nH]c3ccccc23)C(=O)N[C@@H](C(C)C)C(=O)N[C@@H]([C@@H](C)O)C(=O)N[C@@H](CC(C)C)C(=O)N2CCC[C@H]2C(=O)N[C@@H](Cc2cnc[nH]2)C(=O)N1)C(C)C)C(N)=O` (Ac-FK(X1)VCNWVTLPHCK(Ac)VM-NH2; disulfide 4-12), the Kd was over 1 µM.

On to `CSCC[C@H](NC(=O)[C@@H](NC(=O)[C@H](CCCCNC(C)=O)NC(=O)[C@@H]1CSSC[C@H](NC(=O)[C@@H](NC(=O)[C@H](CC(=O)O)NC(=O)[C@H](CCCCNC(=O)COCC(=O)Nc2ccc(CCC(=O)N3CCC3=O)cc2)NC(C)=O)C(C)C)C(=O)N[C@@H](CC(N)=O)C(=O)N[C@@H](Cc2c[nH]c3ccccc23)C(=O)N[C@@H](C(C)C)C(=O)N[C@@H]([C@@H](C)O)C(=O)N[C@@H](CC(C)C)C(=O)N2CCC[C@H]2C(=O)N[C@@H](Cc2cnc[nH]2)C(=O)N1)C(C)C)C(N)=O` (Ac-K(X1)DVCNWVTLPHCK(Ac)VM-NH2; disulfide 4-12), for which the Kd was over 1 µM.

With `CSCC[C@H](NC(=O)[C@@H](NC(=O)[C@H](CCCCNC(C)=O)NC(=O)[C@@H]1CSSC[C@H](NC(=O)[C@@H](NC(=O)[C@H](CC(=O)O)NC(=O)[C@H](Cc2ccccc2)NC(=O)COCC(=O)Nc2ccc(CCC(=O)N3CCC3=O)cc2)C(C)C)C(=O)N[C@@H](CC(N)=O)C(=O)N[C@@H](Cc2c[nH]c3ccccc23)C(=O)N[C@@H](C(C)C)C(=O)N[C@@H]([C@@H](C)O)C(=O)N[C@@H](CC(C)C)C(=O)N2CCC[C@H]2C(=O)N[C@@H](Cc2cnc[nH]2)C(=O)N1)C(C)C)C(N)=O` (X1-FDVCNWVTLPHCK(Ac)VM-NH2; disulfide 4-12), the Kd is over 1 µM.

The target in the next assay is T1, Placenta growth factor. As to the kind of experiment: Inhibition of human PlGF-1-VEGFR-1 interaction by ELISA.
Conditions: not given
A general note: An ELISA detects its analyte on a solid surface through an enzyme-linked reagent.
As to `CSCC[C@H](NC(=O)[C@@H](NC(=O)[C@H](CCCCN)NC(=O)[C@@H]1CSSC[C@H](NC(=O)[C@@H](NC(=O)[C@H](CC(=O)O)NC(=O)[C@H](Cc2ccccc2)NC(C)=O)C(C)C)C(=O)N[C@@H](CCCCN)C(=O)N[C@@H](Cc2c[nH]c3ccccc23)C(=O)N[C@@H](C(C)C)C(=O)NCC(=O)N[C@@H](CC(C)C)C(=O)N2CCC[C@H]2C(=O)N[C@@H](Cc2cnc[nH]2)C(=O)N1)C(C)C)C(N)=O` (Ac-FDVCKWVGLPHCKVM-NH2; disulfide 4-12), the IC50 stood at 6 µM.

Consider `CSCC[C@H](NC(=O)[C@H](CCCCN)NC(=O)[C@@H]1CSSC[C@H](NC(=O)[C@@H](NC(=O)[C@H](CC(=O)O)NC(=O)[C@H](Cc2ccccc2)NC(C)=O)C(C)C)C(=O)N[C@@H](CCCCN)C(=O)N[C@@H](Cc2c[nH]c3ccccc23)C(=O)N[C@@H](C(C)C)C(=O)N[C@@H]([C@@H](C)O)C(=O)N[C@@H](CC(C)C)C(=O)N2CCC[C@H]2C(=O)N[C@@H](Cc2cnc[nH]2)C(=O)N1)C(=O)N[C@@H](CCCC(N)=O)C(N)=O` (Ac-FDVCKWVTLPHCKM[Aad](NH2)-NH2; disulfide 4-12), for which the IC50 was 1 µM.

In turn, `CSCC[C@H](NC(=O)[C@@H](NC(=O)[C@H](CCCNC(=N)N)NC(=O)[C@@H]1CSSC[C@H](NC(=O)[C@@H](NC(=O)[C@H](CC(=O)O)NC(=O)[C@H](Cc2ccccc2)NC(C)=O)C(C)C)C(=O)N[C@@H](CCCCN)C(=O)N[C@@H](Cc2c[nH]c3ccccc23)C(=O)N[C@@H](C(C)C)C(=O)N[C@@H]([C@@H](C)O)C(=O)N[C@@H](CC(C)C)C(=O)N2CCC[C@H]2C(=O)N[C@@H](Cc2cnc[nH]2)C(=O)N1)C(C)C)C(N)=O` (Ac-FDVCKWVTLPHCRVM-NH2; disulfide 4-12) registered an IC50 of 5 µM.

On to `CSCC[C@H](NC(=O)[C@@H](NC(=O)[C@H](CCCN=C(N)N)NC(=O)[C@@H]1CSSC[C@H](NC(=O)[C@@H](NC(=O)[C@H](CC(=O)O)NC(=O)[C@H](Cc2ccccc2)NC(C)=O)C(C)C)C(=O)N[C@@H](CC(N)=O)C(=O)N[C@@H](Cc2c[nH]c3ccccc23)C(=O)N[C@@H](C(C)C)C(=O)NCC(=O)N[C@@H](CC(C)C)C(=O)N[C@@H](C)C(=O)N[C@@H](Cc2cnc[nH]2)C(=O)N1)C(C)C)C(N)=O` (Ac-FDVCNWVGLAHCRVM-NH2; disulfide 4-12), for which the IC50 is 5 µM.

Regarding `CSCC[C@H](NC(=O)[C@@H](NC(=O)[C@H](CCCNC(=N)N)NC(=O)[C@@H]1CSSC[C@H](NC(=O)[C@@H](NC(=O)[C@H](CC(=O)O)NC(=O)[C@H](Cc2ccccc2)NC(C)=O)C(C)C)C(=O)N[C@@H](CC(N)=O)C(=O)N[C@@H](Cc2c[nH]c3ccccc23)C(=O)N[C@@H](C(C)C)C(=O)NCC(=O)N[C@@H](CC(C)C)C(=O)N2CCC[C@H]2C(=O)N[C@@H](Cc2cnc[nH]2)C(=O)N1)C(C)C)C(N)=O` (Ac-FDVCNWVGLPHCRVM-NH2; disulfide 4-12), half-maximal inhibition (IC50) was put at 9 µM. Against the preceding compound, the IC50 is about 1.8-fold higher.

The compound `CSCC[C@H](NC(=O)[C@H](CCCCN)NC(=O)[C@@H]1CSSC[C@H](NC(=O)[C@@H](NC(=O)[C@H](CC(=O)O)NC(=O)[C@H](Cc2ccccc2)NC(C)=O)C(C)C)C(=O)N[C@@H](CC(N)=O)C(=O)N[C@@H](Cc2c[nH]c3ccccc23)C(=O)N[C@@H](C(C)C)C(=O)N[C@@H]([C@@H](C)O)C(=O)N[C@@H](CC(C)C)C(=O)N2CCC[C@H]2C(=O)N[C@@H](Cc2cnc[nH]2)C(=O)N1)C(=O)N[C@@H](CCCC(N)=O)C(N)=O` (Ac-FDVCNWVTLPHCKM[Aad](NH2)-NH2; disulfide 4-12) registered an IC50 of 1 µM.

`CSCC[C@H](NC(=O)[C@@H](NC(=O)[C@H](CCCCN)NC(=O)[C@@H]1CSSC[C@H](NC(=O)[C@@H](NC(=O)[C@H](CC(=O)O)NC(=O)[C@H](Cc2ccccc2)NC(C)=O)C(C)C)C(=O)N[C@@H](CC(N)=O)C(=O)N[C@@H](Cc2c[nH]c3ccccc23)C(=O)N[C@@H](C(C)C)C(=O)N[C@@H]([C@@H](C)O)C(=O)N[C@@H](CC(C)C)C(=O)N2CCC[C@H]2C(=O)N[C@@H](Cc2cnc[nH]2)C(=O)N1)C(C)C)C(N)=O` (Ac-FDVCNWVTLPHCKVM-NH2; disulfide 4-12) had an IC50 of 1 µM. This lies in the single-digit micromolar range.

`CSCC[C@H](NC(=O)[C@H](Cc1ccccc1)NC(C)=O)C(=O)N[C@H](C(=O)N[C@H]1CSSC[C@@H](C(=O)N2CCC[C@H]2C(=O)N[C@@H](CCSC)C(=O)N[C@@H](CCC(N)=O)C(N)=O)NC(=O)[C@H](Cc2c[nH]c3ccccc23)NC(=O)[C@@H]2CCCN2C(=O)[C@H](CC(C)C)NC(=O)[C@H]([C@@H](C)O)NC(=O)[C@H](C(C)C)NC(=O)[C@H](Cc2ccc(O)cc2)NC(=O)[C@H](CC(N)=O)NC1=O)C(C)C` (Ac-FMVCNYVTLPWCPMQ-NH2; disulfide 4-12): the concentration for half-maximal inhibition (IC50) stood at 19 µM.

In turn, `CC[C@H](C)[C@H](NC(=O)[C@H](C)NC(=O)[C@H](CC(C)C)NC(=O)[C@@H]1CSSC[C@H](NC(=O)[C@@H](NC(=O)[C@H](CC(=O)O)NC(=O)[C@H](CC(C)C)NC(C)=O)C(C)C)C(=O)N[C@@H](CC(C)C)C(=O)N[C@@H](Cc2c[nH]c3ccccc23)C(=O)N[C@@H](C(C)C)C(=O)N[C@@H](CO)C(=O)N[C@@H](CC(C)C)C(=O)N2CCC[C@H]2C(=O)N[C@@H](Cc2cnc[nH]2)C(=O)N1)C(N)=O` (Ac-LDVCLWVSLPHCLAI-NH2; disulfide 4-12) showed an IC50 of 100 µM.

For the compound `CC[C@H](C)[C@H](NC(=O)[C@@H]1CSSC[C@H](NC(=O)[C@@H](NC(=O)[C@H](CCC(N)=O)NC(=O)[C@H](Cc2c[nH]c3ccccc23)NC(C)=O)[C@@H](C)CC)C(=O)N[C@@H](CC(=O)O)C(=O)N[C@@H]([C@@H](C)CC)C(=O)N[C@@H](CC(C)C)C(=O)N[C@@H]([C@@H](C)O)C(=O)N[C@@H](CC(C)C)C(=O)N2CCC[C@H]2C(=O)N[C@@H](Cc2cnc[nH]2)C(=O)N1)C(=O)N[C@@H](Cc1ccccc1)C(=O)N[C@@H](CC(N)=O)C(N)=O` (Ac-WQICDILTLPHCIFN-NH2; disulfide 4-12), the IC50 came out at 100 µM.

The compound `CC[C@H](C)[C@H](NC(=O)[C@H](CC(=O)O)NC(=O)[C@H](Cc1ccc(O)cc1)NC(C)=O)C(=O)N[C@H]1CSSC[C@@H](C(=O)N[C@@H](Cc2ccccc2)C(=O)N[C@@H](C)C(=O)N[C@H](C(N)=O)C(C)C)NC(=O)[C@H](Cc2cnc[nH]2)NC(=O)[C@@H]2CCCN2C(=O)[C@H](CC(C)C)NC(=O)[C@H](CCCNC(=N)N)NC(=O)[C@H]([C@@H](C)CC)NC(=O)[C@H](Cc2ccc(O)cc2)NC(=O)[C@H](Cc2cnc[nH]2)NC1=O` (Ac-YDICHYIRLPHCFAV-NH2; disulfide 4-12) had a half-inhibitory concentration (IC50) of 100 µM.
